Source: ChEMBL document CHEMBL1201862, “PubChem BioAssay data set” (2004)
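In this assay, cells in 96-well plates receive the compound at five concentrations for 48 hours. Endpoints are linearly interpolated between the surrounding concentrations. GI50: concentration for 50% inhibition of growth.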 Calls of active or inactive are those of the source. No stated cut-off is given here; in the data, active = GI50 up to about 1.1 µM and inactive = higher.

Experiments:
Experiment in all cases: inhibition of tumour cell growth, NCI panel, 48 h
A549 = system: A549
ACHN = system: ACHN
CCRF-CEM = system: CCRF-CEM
COLO 205 = system: COLO 205
HCT-15 = system: HCT-15
HT-29 = system: HT-29
LOX IMVI = system: LOX IMVI
NCI-H23 = system: NCI-H23
NCI-H460 = system: NCI-H460
OVCAR-4 = system: OVCAR-4
OVCAR-5 = system: OVCAR-5
OVCAR-8 = system: OVCAR-8
SK-MEL-28 = system: SK-MEL-28
SK-MEL-2 = system: SK-MEL-2
SK-MEL-5 = system: SK-MEL-5
SK-OV-3 = system: SK-OV-3
SW-620 = system: SW-620
U-251 = system: U-251
UO-31 = system: UO-31
SF-268 = system: SF-268

SMILES | GI50 (A549) | GI50 (ACHN) | GI50 (CCRF-CEM) | GI50 (COLO 205) | GI50 (HCT-15) [µM] | GI50 (HT-29) | GI50 (LOX IMVI) | GI50 (NCI-H23) | GI50 (NCI-H460) | GI50 (OVCAR-4) | GI50 (OVCAR-5) | GI50 (OVCAR-8) | GI50 (SK-MEL-28) | GI50 (SK-MEL-2) | GI50 (SK-MEL-5) | GI50 (SK-OV-3) | GI50 (SW-620) | GI50 (U-251) | GI50 (UO-31) | GI50 (SF-268)
CCP(=O)(CC)C(Cl)(Cl)C(O)C(C)(C)C (configuration not stated) | > 100 µM (inactive) | > 100 µM (inactive) | > 100 µM (inactive) | > 100 µM (inactive) | > 100 | > 100 µM (inactive) | > 100 µM (inactive) | > 100 µM (inactive) | > 100 µM (inactive) | > 100 µM (inactive) | > 100 µM (inactive) | > 100 µM (inactive) | > 100 µM (inactive) | > 100 µM (inactive) | > 100 µM (inactive) | > 100 µM (inactive) | > 100 µM (inactive) | > 100 µM (inactive) | > 100 µM (inactive) | 
CCN1C(=O)c2cc(OC)c(OC)cc2C(=O)C12OC(=O)c1cc3c(cc12)OCO3 (configuration not stated) | 36.9 µM (inactive) | > 100 µM (inactive) | 35.6 µM (inactive) | > 100 µM (inactive) | > 100 | 87.3 µM (inactive) | 40.7 µM (inactive) | > 100 µM (inactive) | 43.4 µM (inactive) | 69.8 µM (inactive) | > 100 µM (inactive) | 48 µM (inactive) | > 100 µM (inactive) | 20.2 µM (inactive) | 85.9 µM (inactive) |  | > 100 µM (inactive) | 43 µM (inactive) | > 100 µM (inactive) | 69.7 µM (inactive)
C=COCCCOc1ccccc1 | > 100 µM (inactive) | > 100 µM (inactive) | > 100 µM (inactive) | > 100 µM (inactive) | > 100 | > 100 µM (inactive) | > 100 µM (inactive) | > 100 µM (inactive) | > 100 µM (inactive) | > 100 µM (inactive) | > 100 µM (inactive) | > 100 µM (inactive) | > 100 µM (inactive) | > 100 µM (inactive) | > 100 µM (inactive) |  | > 100 µM (inactive) | > 100 µM (inactive) | > 100 µM (inactive) | > 100 µM (inactive)
CCOc1c(/N=N/c2ccccc2Cl)c(-c2ccccc2)nn1C(=S)S | 33.2 µM (inactive) | 48.1 µM (inactive) |  | 21.4 µM (inactive) | 23.1 | 25.2 µM (inactive) | 19.9 µM (inactive) | 30.3 µM (inactive) | 45.2 µM (inactive) | 48.4 µM (inactive) | 61 µM (inactive) | 54 µM (inactive) | > 100 µM (inactive) | 34.8 µM (inactive) | 21.2 µM (inactive) | > 100 µM (inactive) | 46.6 µM (inactive) | 51.1 µM (inactive) | 35.6 µM (inactive) | > 100 µM (inactive)
OCc1cn(C(c2ccccc2)(c2ccccc2)c2ccccc2)cn1 | > 100 µM (inactive) | 72.4 µM (inactive) | > 100 µM (inactive) | > 100 µM (inactive) | > 100 | > 100 µM (inactive) | 66.7 µM (inactive) | > 100 µM (inactive) | > 100 µM (inactive) | > 100 µM (inactive) | > 100 µM (inactive) | > 100 µM (inactive) | > 100 µM (inactive) | > 100 µM (inactive) | > 100 µM (inactive) | 66.4 µM (inactive) | > 100 µM (inactive) | 50.9 µM (inactive) | > 100 µM (inactive) | 
Cc1ccc(S(=O)(=O)N2CCCSCC2)cc1 | > 100 µM (inactive) | > 100 µM (inactive) | > 100 µM (inactive) | > 100 µM (inactive) | > 100 | > 100 µM (inactive) | > 100 µM (inactive) | > 100 µM (inactive) | > 100 µM (inactive) | > 100 µM (inactive) |  | > 100 µM (inactive) | > 100 µM (inactive) |  | > 100 µM (inactive) | > 100 µM (inactive) | > 100 µM (inactive) | > 100 µM (inactive) | 35.2 µM (inactive) | > 100 µM (inactive)
C=C1C(=O)O[C@@H]2[C@H]3O[C@]3(C)CCC=C(C)CC[C@@H]12 | 94.6 µM (inactive) |  | 8.38 µM (inactive) | 14.5 µM (inactive) | 14.7 | 23.6 µM (inactive) | 8.24 µM (inactive) | 20.2 µM (inactive) | 18.8 µM (inactive) | 21.6 µM (inactive) | 34.2 µM (inactive) | 16.7 µM (inactive) | 21.1 µM (inactive) | 16.2 µM (inactive) | 17.5 µM (inactive) | 54.7 µM (inactive) | 14.8 µM (inactive) | 41.6 µM (inactive) | 42 µM (inactive) | 23.7 µM (inactive)
